US20070197389A1 (priority 2004, published 2007)

Experiments:
[1] = test system: Phytophthora infestans; format: in vivo; settings: 250 ppm active compound, potted tomato plants, sprayed 1 day before infection, assessed after 6 days; untreated plants 70% infected
[2] = test system: Pyricularia oryzae; format: cell-based; settings: 125 ppm active compound, microtiter plate, absorption at 405 nm on day 7 after inoculation, relative to active compound-free control

CCC(=O)Nc1c(-c2c(F)cc(F)cc2F)c(Cl)nc2ncnn12 [Example 5, N-[5-chloro-6-(2,4,6-trifluorophenyl)(1,2,4-triazolo-[1,5-a]pyrimidin-7-yl)]propionamide]
infection [1]: less than or equal to 15%

CC(=O)Nc1c(-c2c(F)cc(F)cc2F)c(Cl)nc2ncnn12 [Example 4, N-[5-Chloro-6-(2,4,6-trifluorophenyl)(1,2,4-triazolo[1,5-a]pyrimidin-7-yl)]acetamide]
relative growth [2]: less than or equal to 1%
